Results published in US9751837B2, “Kinase inhibitors” (RESPIVERT LIMITED, priority 2014, dated 2017).
In brackets after ≈: the same amount, converted by molar mass. Structures can show the parent of a compound that is named as a salt. Where two headings read alike, the source gives them in different places.

Assays:
[1] = target: human ether a go-go (hERG) channel (Homo sapiens (Human), UniProt Q12809); assay: hERG inhibition, IonWorks patch clamp electrophysiology; assay type: cell-based; conditions: IonWorks patch clamp
Description: (§1) Compounds of the invention were tested for inhibition of the human ether a go-go (hERG) channel using IonWorks™ patch clamp electrophysiology at Essen Bioscience (Welwyn Garden City, England).

hERG = hERG (Homo sapiens (Human), UniProt Q12809); assay: as above; assay type: cell-based; conditions: human, hERG, read-out: % Inhibition at Top Concentration
Description: as §1

[2] = Solubility in fasted-state simulated colonic fluid (FaSSCoF) at pH 6.5; assay type: physicochemical; conditions: 25 °C, pH 6.5, fassgf or other biorelevant, thermodynamic from solid
Outline: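 Compounds were suspended at up to 2-10 mg/mL in pH 6.5 Tris/maleate FaSSCoF containing a five-bile-acid mixture, phosphatidylcholine, palmitic acid and BSA. After 24 h equilibration at 25° C the suspension was filtered and the filtrate quantified by HPLC peak area against a standard.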

[3] = Stability of pharmaceutical formulations (HPLC); assay type: physicochemical; conditions: 1 mg/mL solution; for Purity (%) at week n = 4: 4 weeks
Description: The samples were sonicated to achieve clear solutions having the following properties: Osmolality (mOsm/kg): 310 (Na), 314 (HCl); pH: 7.00 (Na), 7.05 (HCl). 0.5 mL of the stock solutions were diluted to 1 mL with 20% DMSO in water & injected for purity analysis by HPLC. The remaining stock solutions were then split into aliquots of 0.5 mL in HPLC vials, and stored at various conditions in duplicate. Samples were stored at 5 and 25° C., before being analysed by HPLC at 1, 2 and 4 weeks. Separate samples were stored at 40° C. and analysed at 4 weeks.

GSK 3α = GSK 3α (Homo sapiens (Human), UniProt P49840); assay: GSK 3α enzyme inhibition (Method 2), Z-LYTE FRET; assay type: biochemical; conditions: read-out: IC50 Values for Enzyme Inhibition GSK3α
Outline: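 GSK3-α (500 ng/mL stock) was preincubated with compound at RT for 2 hr (Method 1; 4-0.004 μg/mL stocks) or 105 min (Method 2; 10-0.01 μg/mL stocks). The Z-LYTE FRET peptide (8 μM stock) and ATP (40 μM stock) were then reacted for 1 hr, followed by 1 hr protease development. Phosphorylation was read as the coumarin/fluorescein emission ratio.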

B-Raf = B-Raf (Homo sapiens (Human), UniProt P15056); assay: KINOMEscan binding of B-Raf to its standard ligand
Description: (§2) These assays may be conducted by DiscoverX (formerly Ambit; San Diego, Calif.).

non-mutant kinases = assay: KinomeScan Selectivity Scores; assay type: binding; conditions: for KinomeScan Selectivity Score S(1): (non-mutant kinases with % Ctrl <1)/(non-mutant kinases tested)
Description: as §2

B-Raf (V600E) = B-Raf (V600E) (Homo sapiens (Human), UniProt P15056, V600E); assay: KINOMEscan binding of B-Raf (V600E) to its standard ligand
Description: as §2

Jurkat cells = assay: Cell cytotoxicity assay (r); assay type: cell-based, human; conditions: 24 hours
Outline: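 Jurkat cells (1×10^5/well, RPMI + 10% FBS) exposed to compound at 20, 5 or 1 μg/mL final (1.0% DMSO control) for 24 h at 37° C., 5% CO2. Then stained with 7.5 μg/mL propidium iodide for 15 min. % viability = PI-negative cells by flow cytometry, normalized to DMSO.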

[4] = pH 6.5 FaSSCoF Solubility (mg/mL) Run 1
[5] = pH 6.5 FaSSCoF Solubility (mg/mL) Run 2

Sequence of human ether a go-go (hERG) channel (Q12809 whole entry): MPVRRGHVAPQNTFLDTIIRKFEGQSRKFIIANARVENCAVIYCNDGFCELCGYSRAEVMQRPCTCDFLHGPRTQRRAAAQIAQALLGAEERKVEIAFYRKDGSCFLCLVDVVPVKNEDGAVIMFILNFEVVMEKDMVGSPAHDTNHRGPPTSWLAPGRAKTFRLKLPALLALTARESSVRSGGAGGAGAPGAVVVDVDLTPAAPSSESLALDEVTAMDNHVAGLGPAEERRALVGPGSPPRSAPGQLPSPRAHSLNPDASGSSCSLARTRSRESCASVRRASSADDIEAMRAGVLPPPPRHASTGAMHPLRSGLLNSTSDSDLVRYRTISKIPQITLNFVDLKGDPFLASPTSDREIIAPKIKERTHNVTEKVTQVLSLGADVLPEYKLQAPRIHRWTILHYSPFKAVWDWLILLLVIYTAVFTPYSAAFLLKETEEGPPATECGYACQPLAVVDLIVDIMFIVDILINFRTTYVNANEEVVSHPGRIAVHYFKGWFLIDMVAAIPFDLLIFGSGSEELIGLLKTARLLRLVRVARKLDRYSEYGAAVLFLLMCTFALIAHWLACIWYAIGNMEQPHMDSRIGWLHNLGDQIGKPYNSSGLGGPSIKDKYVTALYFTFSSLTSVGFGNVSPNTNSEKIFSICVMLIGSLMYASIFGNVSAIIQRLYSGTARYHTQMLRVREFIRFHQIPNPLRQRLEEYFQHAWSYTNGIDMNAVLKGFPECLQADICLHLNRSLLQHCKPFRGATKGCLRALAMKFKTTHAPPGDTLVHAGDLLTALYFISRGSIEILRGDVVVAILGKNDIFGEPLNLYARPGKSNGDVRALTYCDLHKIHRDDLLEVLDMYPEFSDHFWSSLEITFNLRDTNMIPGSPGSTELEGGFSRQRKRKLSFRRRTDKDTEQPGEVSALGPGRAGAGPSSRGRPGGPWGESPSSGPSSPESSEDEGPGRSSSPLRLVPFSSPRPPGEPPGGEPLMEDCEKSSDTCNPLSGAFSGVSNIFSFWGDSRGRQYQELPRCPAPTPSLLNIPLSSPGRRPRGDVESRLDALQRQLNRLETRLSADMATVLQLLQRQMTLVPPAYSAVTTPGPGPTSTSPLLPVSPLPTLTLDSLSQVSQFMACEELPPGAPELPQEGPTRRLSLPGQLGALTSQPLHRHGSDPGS
Sequence of hERG (Q12809 whole entry): as above
Sequence of GSK 3α (P49840 whole entry): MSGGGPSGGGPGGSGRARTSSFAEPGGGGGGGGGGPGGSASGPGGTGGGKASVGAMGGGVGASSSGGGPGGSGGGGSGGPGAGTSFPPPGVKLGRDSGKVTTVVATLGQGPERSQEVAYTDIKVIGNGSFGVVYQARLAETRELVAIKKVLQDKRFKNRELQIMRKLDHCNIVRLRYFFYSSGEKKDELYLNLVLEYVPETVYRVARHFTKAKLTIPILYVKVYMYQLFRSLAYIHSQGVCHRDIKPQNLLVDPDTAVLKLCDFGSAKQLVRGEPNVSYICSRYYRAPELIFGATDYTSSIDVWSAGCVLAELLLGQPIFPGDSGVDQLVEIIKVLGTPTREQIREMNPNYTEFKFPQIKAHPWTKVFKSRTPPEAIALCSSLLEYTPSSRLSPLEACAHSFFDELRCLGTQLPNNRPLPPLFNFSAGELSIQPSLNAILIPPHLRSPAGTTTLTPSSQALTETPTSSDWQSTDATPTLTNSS
Sequence of B-Raf (P15056 whole entry): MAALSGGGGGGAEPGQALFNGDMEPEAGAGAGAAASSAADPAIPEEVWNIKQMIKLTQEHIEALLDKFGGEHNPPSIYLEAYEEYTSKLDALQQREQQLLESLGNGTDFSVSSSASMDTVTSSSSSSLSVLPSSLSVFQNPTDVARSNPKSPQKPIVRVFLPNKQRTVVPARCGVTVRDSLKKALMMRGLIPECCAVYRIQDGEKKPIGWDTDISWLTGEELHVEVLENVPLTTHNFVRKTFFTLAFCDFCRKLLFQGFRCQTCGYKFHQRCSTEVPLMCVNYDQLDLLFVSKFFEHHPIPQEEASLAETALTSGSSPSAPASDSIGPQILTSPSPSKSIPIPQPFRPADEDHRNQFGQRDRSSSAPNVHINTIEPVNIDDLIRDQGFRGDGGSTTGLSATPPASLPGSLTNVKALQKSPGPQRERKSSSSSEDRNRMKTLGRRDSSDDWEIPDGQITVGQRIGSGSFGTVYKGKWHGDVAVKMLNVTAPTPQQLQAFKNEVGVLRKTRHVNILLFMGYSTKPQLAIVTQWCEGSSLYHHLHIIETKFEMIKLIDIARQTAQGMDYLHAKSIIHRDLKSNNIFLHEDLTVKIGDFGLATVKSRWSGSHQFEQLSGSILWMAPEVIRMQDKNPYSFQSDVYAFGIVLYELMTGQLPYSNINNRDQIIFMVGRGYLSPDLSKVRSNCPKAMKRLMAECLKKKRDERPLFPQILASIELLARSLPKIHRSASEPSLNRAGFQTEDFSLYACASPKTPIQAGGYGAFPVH
Sequence of B-Raf (V600E) (P15056 whole entry V600E): as the sequence (P15056 whole entry) above, with V600E counted along it

solubility thermodynamic at 24 h [2, 4] | solubility thermodynamic at 24 h [2, 5] | IC50 (GSK 3α) | SMILES | IC50 [1] | inhibition at 11 µM (hERG) | other results
0.017 mg/mL (≈ 19.9 µM) | 0.025 mg/mL (≈ 29.2 µM) | – | COc1cc(Nc2cc(Oc3ccc(NC(=O)Nc4cc(C(C)(C)C)cc(NS(C)(=O)=O)c4OC)c4ccccc34)ccn2)cc(OC)c1C(=O)NCCN1CCN(C)CC1 [Example 22, 4-((4-((4-(3-(5-(tert-Butyl)-2-methoxy-3-(methylsulfonamido)phenyl)ureido)naphthalen-1-yl)oxy)pyridin-2-yl)amino)-2,6-dimethoxy-N-(2-(4-methylpiperazin-1-yl)ethyl)benzamide] | > 3.7 µM | – | inhibition at 3.7 µM (hERG; 3.7 μM): 13%; solubility thermodynamic at 24 h ([2]; pH 6.5 FaSSCoF Solubility (mg/mL) Run 3): 0.013 mg/mL (≈ 15.2 µM); solubility thermodynamic at 24 h ([2]; pH 6.5 FaSSCoF Solubility (mg/mL) Run 4): 0.009 mg/mL (≈ 10.5 µM)
0.007 mg/mL (≈ 8.5 µM) | 0.003 mg/mL (≈ 3.64 µM) | – | COc1cc(Nc2cc(Oc3ccc(NC(=O)Nc4cc(C(C)(C)C)cc(NC(=O)CO)c4OC)c4ccccc34)ccn2)ccc1C(=O)NCCN1CC[S+]([O-])CC1 [Example 41, 4-((4-((4-(3-(5-(tert-Butyl)-3-(2-hydroxyacetamido)-2-methoxyphenyl)ureido)naphthalen-1-yl)oxy)pyridin-2-yl)amino)-2-methoxy-N-(2-(1-oxidothiomorpholino)ethyl)benzamide] | > 11 µM | 7% | –
– | – | – | COc1cc(Nc2cc(Oc3ccc(NC(=O)Nc4cc(C(C)(C)C)cc(NS(C)(=O)=O)c4OC)c4ccccc34)ccn2)ccc1C(=O)O.Cl [Example 1, hydrochloride salt] | – | – | Purity (%) at week n = 2 ([3]; stored at 5° C., 2 weeks): 98.0%; Purity (%) at week n = 4 ([3]; stored at 5° C.): 98.0%; Purity (%) at week n = 1 ([3]; stored at 25° C., 1 week): 98.0%
– | – | – | COc1cc(Nc2cc(Oc3ccc(NC(=O)Nc4cc(C(C)(C)C)cc(NS(C)(=O)=O)c4OC)c4ccccc34)ccn2)ccc1C(=O)O [Example 1, sodium salt] | – | – | Purity (%) at week n = 4 ([3]; stored at 40° C.): 76.0%
– | – | 2 µM | COc1cc(Nc2cc(Oc3ccc(NC(=O)Nc4cc(C(C)(C)C)cc(NS(C)(=O)=O)c4OC)c4ccccc34)ccn2)ccc1C(=O)NC1CCN(C)CC1 [17(j), 4-[[4-[[4-[[5-tert-butyl-3-(methanesulfonamido)-2-methoxy-phenyl]carbamoylamino]-1-naphthyl]oxy]-2-pyridyl]amino]-2-methoxy-N-(1-methyl-4-piperidyl)benzamide] | > 3.3 µM | – | inhibition at 3 µM (hERG; 3 μM): 7%
– | – | – | CCOP(C)(=O)c1ccc(Nc2cc(Oc3ccc(NC(=O)Nc4cc(C(C)(C)C)cc(NS(C)(=O)=O)c4OC)c4ccccc34)ccn2)cc1OC (stereo not shown) [Example 43, ethyl (4-((4-((4-(3-(5-(tert-butyl)-2-methoxy-3-(methylsulfonamido)phenyl)-ureido)naphthalen-1-yl)oxy)pyridin-2-yl)amino)-2-methoxyphenyl)(methyl)phosphinate] | > 11 µM | 13% | solubility thermodynamic at 24 h ([2]; FaSSCoF pH 6.5, 25° C., 24 h, Run 1, read-out: pH 6.5 FaSSCoF Solubility (mg/mL) Run 1): 0.003 mg/mL (≈ 3.94 µM); solubility thermodynamic at 24 h ([2]; FaSSCoF pH 6.5, 25° C., 24 h, Run 2, read-out: pH 6.5 FaSSCoF Solubility (mg/mL) Run 2): 0.003 mg/mL (≈ 3.94 µM)
0.016 mg/mL (≈ 19.4 µM) | 0.013 mg/mL (≈ 15.8 µM) | 2.21 µM | COc1cc(Nc2cc(Oc3ccc(NC(=O)Nc4cc(C(C)(C)C)cc(NS(C)(=O)=O)c4OC)c4ccccc34)ccn2)ccc1C(=O)NCCC1CCN(C)CC1 [Example 14, 4-[[4-[[4-[[5-tert-Butyl-3-(methanesulfonamido)-2-methoxy-phenyl]carbamoylamino]-1-naphthyl]oxy]-2-pyridyl]amino]-2-methoxy-N-[2-(1-methyl-4-piperidyl)ethyl]benzamide] | – | – | % Viability at 20 μg/mL (Jurkat cells): 0.7%
– | – | 3.06 µM | COCCN(C)CCNC(=O)c1ccc(Nc2cc(Oc3ccc(NC(=O)Nc4cc(C(C)(C)C)cc(NS(C)(=O)=O)c4OC)c4ccccc34)ccn2)cc1OC [17(ad), 4-[[4-[[4-[[5-tert-butyl-3-(methanesulfonamido)-2-methoxy-phenyl]carbamoylamino]-1-naphthyl]oxy]-2-pyridyl]amino]-2-methoxy-N-[2-[2-methoxyethyl(methyl)amino]ethyl]-benzamide] | – | – | % Viability at 5 μg/mL (Jurkat cells): 6.3%; % Viability at 20 μg/mL (Jurkat cells): 0.4%
0.01 mg/mL (≈ 12.4 µM) | 0.01 mg/mL (≈ 12.4 µM) | 2.79 µM | C#Cc1cc(Nc2cc(Oc3ccc(NC(=O)Nc4cc(C(C)(C)C)cc(NS(C)(=O)=O)c4OC)c4ccccc34)ccn2)ccc1C(=O)NCCN1CCOCC1 [Example 15, 4-[[4-[[4-[[5-tert-Butyl-3-(methanesulfonamido)-2-methoxy-phenyl]carbamoylamino]-1-naphthyl]oxy]-2-pyridyl]amino]-2-ethynyl-N-(2-morpholinoethyl)benzamide] | – | – | % Viability at 5 μg/mL (Jurkat cells): 75.0%
0.011 mg/mL (≈ 12.4 µM) | 0.01 mg/mL (≈ 11.3 µM) | – | COc1cc(Nc2cc(Oc3ccc(NC(=O)Nc4cc(C(C)(C)C)cc(N(CCO)S(C)(=O)=O)c4OC)c4ccccc34)ccn2)ccc1C(=O)NCCN1CC[S+]([O-])CC1 [Example 48, 4-((4-((4-(3-(5-(tert-Butyl)-3-(N-(2-hydroxyethyl)methylsulfonamido)-2-methoxyphenyl)-ureido)naphthalen-1-yl)oxy)pyridin-2-yl)amino)-2-methoxy-N-(2-(1-oxidothiomorpholino)-ethyl)benzamide] | > 11 µM | -6% | % Viability at 1 μg/mL (Jurkat cells; 1 μg/mL): 89.0%

SMILES | solubility thermodynamic at 24 h [2, 4] | solubility thermodynamic at 24 h [2, 5] | IC50 (GSK 3α) | IC50 [1] | inhibition at 11 µM (hERG) | other results
COc1cc(Nc2cc(Oc3ccc(NC(=O)Nc4cc(C(C)(C)C)cc(NS(C)(=O)=O)c4OC)c4ccccc34)ccn2)cc(OC)c1C(=O)NCCOCCOCCO [Example 36, 4-((4-((4-(3-(5-(tert-butyl)-2-methoxy-3-(methylsulfonamido)phenyl)ureido)naphthalen-1-yl)oxy)pyridin-2-yl)amino)-N-(2-(2-(2-hydroxyethoxy)ethoxy)ethyl)-2,6-dimethoxybenzamide] | 0.006 mg/mL (≈ 6.97 µM) | 0.006 mg/mL (≈ 6.97 µM) | – | > 11 µM | 24% | effect on the binding of B-Raf to its standard ligand (B-Raf): did not have any significant effect; KinomeScan Selectivity Score S(1) (non-mutant kinases; 50 nM): 0.002; KinomeScan Selectivity Score S(10) (non-mutant kinases; 50 nM, (non-mutant kinases with % Ctrl <10)/(non-mutant kinases tested)): 0.050; KinomeScan Selectivity Score S(1) (non-mutant kinases; 500 nM): 0.079; effect on the binding of B-Raf (V600E) to its standard ligand (B-Raf (V600E)): did not have any significant effect
